Test results published in BigSolDB 2.1.

CC[C@H](/C=C/[C@@H](C)[C@H]1CC[C@H]2[C@@H]3CC=C4C[C@@H](OC(=O)/C=C\C(=O)O)CC[C@]4(C)[C@H]3CC[C@]12C)C(C)C
Details | solubility (mole fraction)
in acetone, 293.15 K | 0.000383
in acetone, 296.65 K | 0.000431
in acetone, 303.65 K | 0.000535
in acetone, 317.15 K | 0.000785
in acetone, 325.65 K | 0.00102
in ethyl acetate, 288.15 K | 0.00146
in ethyl acetate, 293.25 K | 0.00179
in ethyl acetate, 298.15 K | 0.00202
in ethyl acetate, 302.65 K | 0.0028
in ethyl acetate, 308.65 K | 0.00395
in ethyl acetate, 312.65 K | 0.00438
in ethyl acetate, 317.35 K | 0.0053
